The text below walks through data of US8791072B2 (priority 2011, dated 2014).

Test [1] has as its system neuromuscular junctions in rabbit extraocular muscle. Conditions: in vivo; cited from earlier work.
The next test relates to superior rectus muscle. To be noted: rabbit, in vivo.
Another test deals with neuromuscular junction. To be noted: in vivo; cited from earlier work.
Test [2] concerns neuromuscular junctions in orbicularis oculi muscle. To be noted: rabbit, in vivo.

Where “and” joins values, the source holds several entries; their conditions need not be identical. Equal entries are not always repeated. Where no end group is shown, it is not given here.

Consider botulinum toxin A, for which the “change in number of neuromuscular junctions in the treated area” value in test [1] is listed as “doubling of neuromuscular junctions”. For the same substance, the “muscle force in response to electrical stimulation” value with superior rectus muscle was “variable response, with some showing force equal to the saline-treated control muscles”. The “return of normal neuromuscular junction activity” value in the test on neuromuscular junction is 20%. Also, in test [2], the “combined total muscle neuromuscular junction density, orbicularis oculi muscle” value is reported as 5.9±0.43 /mm^2; the “increase of combined total muscle neuromuscular junction density” value was about 3 fold; the “neuromuscular junction density, preseptal region” value is 4.4±01 /mm^2 and 2.9±0.4 /mm^2 and 5.23±0.7 /mm^2; the “neuromuscular junction density, pretarsal region” value was 4.0±0.21 /mm^2 and 5.7±0.8 /mm^2. In addition, the “preseptal neuromuscular junction density relative to control” value in test [2] is “between about two and three times greater than control”.

On to “corticotropin releasing factor (SEEPPISLDLTFHLLREVLEMARAEQLAQQAHSNRKLMEII; ends and bridges not checked; UniProt P06850 154-194, looked up) [CRF]”, for which, in test [2], the “neuromuscular junction density compared to saline control (in words)” value was “not significantly different from the density in the control orbicularis oculi muscles” and the “neuromuscular junction density, orbicularis oculi muscle” value is on record as 2.39±0.23 /mm^2.
